Experimental findings from patent US20210196724A1, “BIARYL COMPOSITIONS AND METHODS FOR MODULATING A KINASE CASCADE” (Athenex, Inc., priority 2016, published 2021) are described below.

The test system of data set [1] is GL261 cells. The experiment in a line: MTT cell growth inhibition (GI50), GL261. The data set is classed as cell-based, murine. As to conditions: 3 days. How it is done: (§1) The drug concentration required to block net cell growth by 50% relative to a control sample is measured as the GI50. The GI50s for several of the compounds of the application were assayed as described.
(§2) MTT assay: U87 and GL261 cells were seeded in 96-well plate (6×10^3 cells in 100 μl of DMEM+10% FBS media per well) and incubated overnight at 37° C. with 5% CO2. All test compounds were diluted (10 point 2-fold serial dilution) in a separate 96-well plate to yield 10× of final concentrations (0.5-256 nM). A volume of 11 μl of 10× dilutions was added to appropriate wells (n=3). To value (reflecting the starting number of cells upon drug treatment) was determined by following steps as described below. After 3 days incubation at 37° C. with 5% CO2, 10 μl of MTT solution (5 mg/ml in PBS) was added to each well and plates were incubated at 37° C. for 3 h to allow MTT to form formazan crystals by reacting with metabolically active cells. 100 μl of 20% SDS was added to each well and plates were incubated overnight at 37° C. with 5% CO2. Afterward, OD570 was measured using microplate reader. The cell growth percentage of control was calculated according to percentage of control=(T−T0)/(C−T0)×100% or OD value of the test well exposure to test drug—OD value at time zero/(OD of the control well without drug treatment−OD value at time zero)×100%. Growth inhibition curves and GI50 were determined using GraphPad Prism 5 software.

Data set [2] concerns U87 cells. The experiment in a line: MTT cell growth inhibition (GI50), U87. The data set is classed as cell-based, human. As to conditions: 3 days. The method, then: as §1, §2
A short description of data set [3]: Pharmacokinetic properties after IV and PO administration. The data set is classed as in vivo.
Data set [4] is described as follows: Brain permeability (brain:plasma ratio). The data set is classed as in vivo. As to conditions: read-out: Brain:Plasma (B:P) Average. The method, then: Brain permeability can be measured by various methods known in the art. For example, brain permeability can be measured by calculating the ratio between the concentration of a compound of the application in the brain and the concentration of the compound in the plasma (i.e., BP ratio). In one aspect, a compound of the application has a B:P ratio of at least 1.0, 1.1, 1.2, 1.3, 1.4, 1.5, 1.6, 1.7, 1.8, 1.9, or 2.0 at 1 hour after administration of the compound to a subject. In one aspect, a compound of the application has a B:P ratio of at least 1.5, 1.6, 1.7, 1.8, 1.9, or 2.0 at 1 hour after administration of the compound to a subject. In one aspect, a compound of the application has a B:P ratio of at least 1.4, 1.5, 1.6, 1.7, 1.8, 1.9, 2.0, 2.1, 2.2, or 2.3 at 2 hours after administration of the compound to a subject. In one aspect, a compound of the application has a B:P ratio of at least 1.9, 2.0, 2.1, 2.2, or 2.3 at 2 hours after administration of the compound to a subject. In one aspect, a compound of the application has a B:P ratio of at least 1.7, 1.8, 1.9, 2.0, 2.1, 2.2, 2.3, 2.4, or 2.5 at 4 hours after administration of the compound to a subject. In one aspect, a compound of the application has a B:P ratio of at least 2.2, 2.3, 2.4, or 2.5 at 4 hours after administration of the compound to a subject.

The mark [5] stands for this setting: in vivo, IV Administration (5 mg/kg).

Several values for one entry are separate records, joined by “and”; a condition that tells them apart may be missing. Identical values can stand only once.

In general, GI50 refers to the concentration giving 50% growth inhibition. With `Cc1nc(CC(=O)NCc2ccccc2)ccc1-c1ccc(N2CCOC[C@H]2C)cc1` [Compound 116], the GI50 in data set [1] is 90 nM and 74 nM; in data set [1] (Mus musculus, GL261, 72 h), 110 nM; in data set [2], 115 nM and 98 nM; in data set [2] (Homo sapiens, U-87 MG, 72 h), 120 nM.
In the case of `COc1cc(N2CCOC[C@@H]2C)ccc1-c1ccc(CC(=O)NCc2ccccc2)nc1` [Compound 126], the GI50 in data set [1] is 38.6 nM; in data set [1] (Mus musculus, GL261, 72 h), 47.9 nM; in data set [2], 46 nM; in data set [2] (Homo sapiens, U-87 MG, 72 h), 41.9 nM.
On to `Cc1cc(CC(=O)NCc2cccc(F)c2)ncc1-c1ccc(N2CCOC[C@H]2C)cc1` [Compound 110], for which the GI50 is > 1020 nM in data set [1] (Mus musculus, GL261, 72 h) and > 1020 nM in data set [2] (Homo sapiens, U-87 MG, 72 h).
Turning to `COc1cc(N2CCOC[C@@H]2C)ccc1-c1ccc(CC(=O)NCc2ccc(F)cc2)nc1` [Compound 129], the GI50 in data set [1] came to 30.3 nM; in data set [1] (Mus musculus, GL261, 72 h), 51.7 nM; in data set [2] it was 38.1 nM; in data set [2] (Homo sapiens, U-87 MG, 72 h), 36 nM.
For `COc1cc(N2CCOC[C@@H]2C)ccc1-c1ccc(CC(=O)NCc2cccc(F)c2)nc1` [Compound 128], the GI50 in data set [1] (Mus musculus, GL261, 72 h) was 303 nM; in data set [2] (Homo sapiens, U-87 MG, 72 h), 377 nM.
For the molecule `Cc1cc(N2CCOC[C@@H]2C)ccc1-c1ccc(CC(=O)N[C@@H]2CCc3ccccc32)nc1` [Compound 107], the GI50 in data set [1] came to 28.3 nM; in data set [1] (Mus musculus, GL261, 72 h), 19.4 nM; in data set [2], 23.4 nM; in data set [2] (Homo sapiens, U-87 MG, 72 h), 22.1 nM.
With `C[C@H]1CN(c2ccc(-c3ccc(CC(=O)NCc4cccc(F)c4)nc3)cc2)CCO1` [Compound 100], the GI50 in data set [1] was determined as 127 nM; in data set [1] (Mus musculus, GL261, 72 h) it was 129 nM; in data set [2] it was 151 nM; in data set [2] (Homo sapiens, U-87 MG, 72 h), 203 nM.
With `C[C@@H]1COCCN1c1ccc(-c2ccc(CC(=O)NCc3cccc(F)c3)nc2)cc1` [Compound 103], the GI50 in data set [1] (Mus musculus, GL261, 72 h) was found to be 113 nM; in data set [2] (Homo sapiens, U-87 MG, 72 h), 146 nM.
The like results for `Cc1cc(N2CCOC[C@@H]2C)ccc1-c1ccc(CC(=O)NCc2cccc(C#N)c2)nc1` [Compound 124] were, in that order, 1030 nM and 860 nM.
The like results for `Cc1cc(CC(=O)NCc2cccc(F)c2)ncc1-c1ccc(N2CCOC[C@@H]2C)cc1` [Compound 109] were, in that order, > 1020 nM and > 1020 nM.
`Cc1nc(CC(=O)NCc2cccc(F)c2)ccc1-c1ccc(N2CCOC[C@H]2C)cc1` [Compound 114]: the GI50 in data set [1] stood at 500 nM; in data set [1] (Mus musculus, GL261, 72 h), 340 nM.
Regarding `Cc1cc(N2CCOC[C@@H]2C)ccc1-c1ccc(CC(=O)NCc2ccc(C#N)cc2)nc1` [Compound 122], the GI50 in data set [1] stood at 18.9 nM; in data set [1] (Mus musculus, GL261, 72 h), 13.8 nM; in data set [2] it was 17.3 nM; in data set [2] (Homo sapiens, U-87 MG, 72 h), 24.7 nM.
On the same counts, the results for `Cc1cc(CC(=O)NCc2ccccc2)ncc1-c1ccc(N2CCOC[C@@H]2C)cc1` [Compound 111] are 170 nM, 195 nM, 224 nM and 239 nM.
The term Cmax denotes the peak of the concentration-time curve. As to `Cc1cc(N2CCOC[C@@H]2C)ccc1-c1ccc(CC(=O)NCc2ccccc2F)nc1` [Compound 120], the GI50 in data set [1] is 13.6 nM and 18.9 nM and 15.8 nM and 13.4 nM and 10.7 nM; in data set [1] (Mus musculus, GL261, 72 h), 17 nM; in data set [2], 22.3 nM and 18.4 nM and 17.7 nM and 18.6 nM; in data set [2] (Homo sapiens, U-87 MG, 72 h), 20.2 nM. Besides, the “AUCIV (dose-normalized)” value in data set [3] (IV Administration (5 mg/kg)) is 188 kg·ng·h/mL/mg. The molecule also gave a t0.5 in data set [3] (IV Administration (5 mg/kg)) of 0.663 h. Further, the “F (%) = 100 × AUCpo/AUCIV” value in data set [3] (PO 20 mg/kg vs IV 5 mg/kg) is reported as 40.9%. The “AUCPO (dose-normalized)” value in data set [3] (PO Administration (20 mg/kg)) amounted to 76.8 kg·ng·h/mL/mg. Also, in data set [3] (setting [5]), the C0 was 1590 ng/mL. In data set [3] (setting [5]), this molecule had a clearance of 88.7 mL/min/kg. The Vd in data set [3] (in vivo, IV Administration (5 mg/kg), read-out: Vss) came out at 3.63 L/kg. This molecule came in with a maximum concentration (Cmax) in data set [3] (in vivo, PO Administration (20 mg/kg)) of 798 ng/mL. The Kp at 0.25 h in data set [4] (time point 0.25 h) was 1.24. The Kp at 0.5 h in data set [4] (time point 0.5 h) worked out at 1.39. Also, in data set [4] (time point 1 h), the Kp at 1 h is 1.72. For the same molecule, the Kp at 2 h in data set [4] (time point 2 h) amounted to 1.38. In addition, in data set [4] (time point 4 h), the Kp at 4 h stood at 1.04. Moreover, in data set [4] (time point 6 h), the Kp at 6 h was found to be 0.82. Besides, the Kp at 8 h in data set [4] (time point 8 h) is 1.12.
For the molecule `Cc1cc(N2CCOC[C@@H]2C)ccc1-c1ccc(CC(=O)NCc2ccccn2)nc1` [Compound 119], the GI50 is 216 nM and 139 nM in data set [1]; 164 nM in data set [1] (Mus musculus, GL261, 72 h); 233 nM and 224 nM in data set [2]; 129 nM in data set [2] (Homo sapiens, U-87 MG, 72 h).
Take `Cc1cc(N2CCOC[C@H]2C)ccc1-c1ccc(CC(=O)NCc2ccccc2)nc1` [Compound 105]: the GI50 in data set [1] was found to be 6.9 nM; in data set [1] (Mus musculus, GL261, 72 h), 5.7 nM; in data set [2] it was 12.2 nM; in data set [2] (Homo sapiens, U-87 MG, 72 h), 10.8 nM.
For `C[C@@H]1CN(c2ccc(-c3ccc(CC(=O)NCc4cccc(F)c4)nc3)cc2)CCO1` [Compound 101], the GI50 in data set [1] (Mus musculus, GL261, 72 h) came out at 76 nM; in data set [2] (Homo sapiens, U-87 MG, 72 h), 96 nM.
In the case of `COc1cc(N2CCOC[C@@H]2C)ccc1-c1ccc(CC(=O)NCc2ccccc2F)nc1` [Compound 127], the GI50 in data set [1] (Mus musculus, GL261, 72 h) was 207 nM; in data set [2] (Homo sapiens, U-87 MG, 72 h), 269 nM.
On to `Cc1cc(N2CCOC[C@@H]2C)ccc1-c1ccc(CC(=O)NCc2ccncc2)nc1` [Compound 117], for which the GI50 in data set [1] was 387 nM; in data set [1] (Mus musculus, GL261, 72 h) it was 488 nM; in data set [2] (Homo sapiens, U-87 MG, 72 h), > 729 nM.
Regarding `C[C@H]1COCCN1c1ccc(-c2ccc(CC(=O)NCc3cccc(F)c3)nc2)cc1` [Compound 102], the GI50 was determined as 42 nM in data set [1]; 24 nM in data set [1] (Mus musculus, GL261, 72 h); 37 nM in data set [2]; 25 nM in data set [2] (Homo sapiens, U-87 MG, 72 h).
On to `Cc1nc(CC(=O)NCc2ccccc2)ccc1-c1ccc(N2CCOC[C@@H]2C)cc1` [Compound 115], for which the 50% growth inhibitory concentration (GI50) in data set [2] was 15 nM and 15.6 nM; in data set [2] (Homo sapiens, U-87 MG, 72 h), 30 nM.
For the molecule `Cc1cc(N2CCOC[C@@H]2C)ccc1-c1ccc(CC(=O)NCc2cccnc2)nc1` [Compound 118], the GI50 in data set [1] (Mus musculus, GL261, 72 h) is 262 nM; in data set [2] (Homo sapiens, U-87 MG, 72 h), 621 nM.
`Cc1cc(N2CCOC[C@@H]2C)ccc1-c1ccc(CC(=O)NCc2ccccc2C#N)nc1` [Compound 123]: the GI50 is 456 nM in data set [1] (Mus musculus, GL261, 72 h) and 473 nM in data set [2] (Homo sapiens, U-87 MG, 72 h).
On to `Cc1cc(CC(=O)NCc2ccccc2)ncc1-c1ccc(N2CCOC[C@H]2C)cc1` [Compound 112], for which the GI50 in data set [1] turned out to be 240 nM; in data set [1] (Mus musculus, GL261, 72 h), 210 nM; in data set [2], 401 nM; in data set [2] (Homo sapiens, U-87 MG, 72 h), 352 nM.
On the same counts, the results for `COc1cc(N2CCOC[C@@H]2C)ccc1-c1ccc(CC(=O)NCc2ccc(C#N)cc2)nc1` [Compound 130] are 107 nM, 111 nM, 135 nM and 104 nM.
For the molecule `COc1ccccc1CNC(=O)Cc1ccc(-c2ccc(N3CCOC[C@@H]3C)cc2C)cn1` [Compound 125], the GI50 stood at 158 nM in data set [1]; 140 nM in data set [1] (Mus musculus, GL261, 72 h); 230 nM in data set [2]; 195 nM in data set [2] (Homo sapiens, U-87 MG, 72 h).
